Measured values: ChEMBL document CHEMBL1201862, “PubChem BioAssay data set” (2004)
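Five compound concentrations were applied to cells in 96-well plates for 48 hours; endpoints were derived by simple linear interpolation of the resulting dose-response curve. GI50 = concentration required for 50% inhibition of growth.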 The source made the active and inactive calls. Rule as the data show it: active = GI50 up to about 1.1 µM and inactive = higher.

Columns and labels:
Experiment in all cases: inhibition of tumour cell growth, NCI panel, 48 h
[1] = system: A498
[2] = system: A549
[3] = system: BT-549
[4] = system: EKVX
[5] = system: HOP-92
[6] = system: LOX IMVI
[7] = system: MDA-MB-435
[8] = system: MOLT-4
[9] = system: Malme-3M
[10] = system: NCI-H23
[11] = system: NCI-H522
[12] = system: OVCAR-3
[13] = system: OVCAR-5
[14] = system: PC-3
[15] = system: RXF 393
[16] = system: SK-MEL-28
[17] = system: SK-OV-3
[18] = system: SW-620
[19] = system: TK-10
[20] = system: UACC-257

Measured: GI50

CCCCCCCCCCCCCCCCSS(C)(=O)=O
inactive: [1] 52.4 µM | [2] > 65.3 µM | [3] 4.42 µM | [4] > 91.2 µM | [5] 15.5 µM | [6] 3.73 µM | [7] > 100 µM | [8] 1.39 µM | [9] 7.45 µM | [10] 42.8 µM | [11] 4.48 µM | [12] 10.9 µM | [13] > 91 µM | [14] > 100 µM | [15] 5.43 µM | [16] 11.9 µM | [17] 97.9 µM | [18] 5.21 µM | [19] 24.1 µM | [20] 42.2 µM

COc1cc(OC)cc(Oc2nc3ccccc3nc2C(F)(F)F)c1
inactive: [1] 22.9 µM | [2] > 100 µM | [3] > 100 µM | [4] > 100 µM | [5] 42 µM | [6] > 100 µM | [7] 3.41 µM | [8] > 100 µM | [9] > 100 µM | [10] > 100 µM | [11] > 100 µM | [12] > 100 µM | [13] 45.1 µM | [14] 89.7 µM | [15] 19.5 µM | [16] > 100 µM | [17] > 100 µM | [18] 20.4 µM | [19] > 100 µM | [20] > 100 µM

NS(=O)(=O)c1ccc(NNc2c3ccccc3nc3ccccc23)cc1
inactive: [1] 18.3 µM | [2] 15.3 µM | [3] 10.3 µM | [4] 12.5 µM | [5] 14.1 µM | [6] 7.21 µM | [7] 12.4 µM | [8] 6.04 µM | [9] 11.2 µM | [10] 13.6 µM | [11] 11.4 µM | [12] 10.2 µM | [13] 12.8 µM | [14] 11.5 µM | [15] 13.2 µM | [16] 12 µM | [17] 14.8 µM | [18] 10.9 µM | [19] 18.8 µM | [20] 13.2 µM

COc1cc(Oc2nc3cc(F)c(F)cc3nc2-c2ccccc2)cc(OC)c1OC
inactive: [1] > 100 µM | [2] > 100 µM | [3] > 100 µM | [4] 97.7 µM | [5] > 100 µM | [6] 81.8 µM | [7] 61.9 µM | [8] > 100 µM | [9] 32 µM | [10] > 100 µM | [11] 13.9 µM | [12] > 100 µM | [13] > 100 µM | [14] 40.3 µM | [15] > 100 µM | [16] > 100 µM | [17] > 100 µM | [18] > 100 µM | [19] 68.2 µM | [20] > 100 µM

CCOC(=O)C1OC(C2(C)OC3(OC4(C=CC3O)OC(C(C)C(=O)C(C)C(O)C(C)CC(C)c3c(Cl)cc(C)c(O)c3C(=O)O)C(C)CC4C)C(C)C2OC)CC1O (stereo not given)
active: [1] 0.46 µM | [2] 0.406 µM | [4] 1.09 µM | [6] 0.413 µM | [7] 0.286 µM | [8] 0.117 µM | [9] 0.294 µM | [10] 0.507 µM | [11] < 0.0803 µM | [12] 0.45 µM | [15] 0.647 µM | [16] 0.418 µM | [17] 0.177 µM | [18] 0.251 µM | [20] 0.577 µM
inactive: [3] 2.08 µM | [5] 2.13 µM | [13] 2.69 µM | [14] 1.6 µM | [19] 2.34 µM

COc1cc(OC)c2c(=O)c3cccc(C)c3n(C)c2c1
inactive: [1] > 100 µM | [2] 83.2 µM | [3] > 100 µM | [4] > 100 µM | [5] 83.6 µM | [6] 55.7 µM | [7] 50.7 µM | [8] 52.4 µM | [9] 98.2 µM | [10] > 100 µM | [11] > 100 µM | [12] 74.8 µM | [13] > 100 µM | [14] 50.9 µM | [15] > 100 µM | [16] 50.1 µM | [17] > 100 µM | [18] > 100 µM | [19] > 100 µM | [20] 43.5 µM

O=C(c1ccc(Cl)cc1)N(Cc1cccnc1)C(=S)N(Cc1cccnc1)C(=O)c1ccc(Cl)cc1
inactive: [1] 30.5 µM | [2] 99.5 µM | [3] 23.7 µM | [4] 50.8 µM | [5] 34 µM | [6] 22 µM | [7] 40.2 µM | [8] 16.1 µM | [9] 51.2 µM | [10] 36.1 µM | [11] 24.2 µM | [12] 34 µM | [13] 36.7 µM | [14] 30.3 µM | [15] 43.6 µM | [16] 37.8 µM | [17] > 100 µM | [18] 40.5 µM | [19] 53 µM | [20] 33.6 µM

FC(F)(F)c1ccc2c(-c3cc[nH]c3)ccnc2c1
inactive: [1] 23.8 µM | [2] 26 µM | [3] 22.6 µM | [4] 33 µM | [5] 52.4 µM | [6] 19.4 µM | [7] 35 µM | [8] 19.4 µM | [9] 24.5 µM | [10] 28 µM | [11] 32.4 µM | [12] 27.4 µM | [13] 44.9 µM | [14] 36.6 µM | [15] 22.5 µM | [16] 35.6 µM | [17] > 100 µM | [18] 36.1 µM | [19] 28.6 µM | [20] 31.4 µM

COc1ccc2c(c1)NC1(CCN(CCCC(=O)c3ccc(F)cc3)CC1)N=N2
inactive: [1] 28.4 µM | [2] 36.4 µM | [3] 26.4 µM | [4] 32.2 µM | [5] 29.9 µM | [6] 18.7 µM | [7] 15.8 µM | [8] 15.3 µM | [9] 15.2 µM | [10] 25.8 µM | [11] 16.9 µM | [12] 23.3 µM | [13] 23.5 µM | [14] 23.1 µM | [15] 16.6 µM | [16] 20 µM | [17] 33.4 µM | [18] 23.8 µM | [19] 20.7 µM | [20] 17.6 µM

C=C1C(=O)OC2/C=C(/CO)C3(O)CC(O)C(C)(CC(OC(=O)/C(C)=C/C)C12)O3 (stereo not given)
inactive: [1] 20.9 µM | [2] 32.8 µM | [3] 4.52 µM | [4] 18.8 µM | [5] 9.91 µM | [6] 11 µM | [7] 9.42 µM | [8] 2.47 µM | [9] 10.2 µM | [10] 13.6 µM | [11] 2.4 µM | [12] 10.2 µM | [13] 21 µM | [14] 26.3 µM | [15] 2.81 µM | [16] 7.64 µM | [17] 21.4 µM | [18] 3.33 µM | [19] 11.9 µM | [20] 15.4 µM

CN(C)CCn1c(=O)c2ccc(NCCCN(C)CCCNc3ccc4c(=O)n(CCN(C)C)c(=O)n5c6ccc([N+](=O)[O-])cc6c(=O)c3c45)c3c(=O)c4cc([N+](=O)[O-])ccc4n(c1=O)c23
active: [1] 0.0478 µM | [2] < 0.01 µM | [3] 0.0376 µM | [4] 0.0411 µM | [5] < 0.0354 µM | [6] < 0.01 µM | [7] < 0.0173 µM | [8] < 0.01 µM | [9] 0.0594 µM | [10] < 0.01 µM | [11] < 0.01 µM | [12] < 0.033 µM | [13] < 0.037 µM | [14] < 0.01 µM | [15] 0.0122 µM | [16] 0.0664 µM | [17] < 0.0258 µM | [18] < 0.0112 µM | [19] < 0.0143 µM | [20] 0.069 µM

Nc1nc(-c2ccccc2)c(Cl)c(-c2cc(Cl)ccc2O)n1
inactive: [1] 34.6 µM | [2] 19.5 µM | [3] 20.4 µM | [4] 28.1 µM | [5] 39.5 µM | [6] 21.2 µM | [7] > 100 µM | [8] > 100 µM | [9] > 77.1 µM | [10] 15.8 µM | [11] 11.6 µM | [12] 16.1 µM | [13] > 60 µM | [14] 36.1 µM | [15] 13.8 µM | [16] 91.2 µM | [17] 17.3 µM | [18] 44.3 µM | [19] 15.5 µM | [20] > 100 µM
